How the values were obtained:
[1] = test system: Trypanosoma cruzi; assay: GSK_TCAKS: pIC50 Trypanosoma cruzi viability assay using beta-GAL activity. This assay was run at single shot at 5uM compound concentration per well. The biological reagents consisted of NIH-3T3 host cells and trypomastigotes parasitic cells; both cell types were set to a 3.3 * 10^5 cells/mL dilution in assay DMEM by means of a CASY cell counter device using a 60um capillary. 6 uL of the mixture were dispensed per well (about 1 * 10^3 host-cells and 1 * 10^3 parasites) with a Multidrop Combi dispenser. […] In all wells, the percentage of DMSO never exceeded 0.5%. Plates incubated for four days at 37C, 5% CO2. The substrate used for the assay fluorescence intensity (FLINT) readout was resorufin-beta-D-galactopiranoside (Sigma-Aldrich) at 5uM per well. It was diluted in PBS supplemented with the soft detergent Igepal (Fluka).; type: functional, organism-based, Mus musculus; settings: Tulahuen, NIH3T3
[2] = test system: Trypanosoma cruzi; assay: (§1) GSK_TCAKS: pIC50 Trypanosoma cruzi Imaging: Infected Cells. […] Cells were then washed once with PBS before infection. T. cruzi trypomastigotes, collected at days 5 to 8 after infection from LLC-MK2 parasite infected cultures, were allowed to swim out for 4h at 37C from a centrifuged pellet (2,500 rpm/10 min/room temperature). Trypomastigotes were then collected and counted in a CASY Cell Counter. Trypomastigotes, in supplemented DMEM, were added to H9c2 cultures in a multiplicity of infection of 1 and incubated for 18 h. Cells were washed once with PBS before incubation of the infected H9c2 monolayer with trypsin (Life-Technologies) to detach cells from the flask. Cells were counted in a CASY Cell Counter using a 150 um capillary and their density set at 5 * 10^4 cells per mL in supplemented assay DMEM. Infected H9c2 were dispensed into 384-well poly-lysine coated assay plates at 50uL per well using a Multidrop Combi dispenser. After seeding them, the plates were incubated at 37C, 5% CO2 for 72h. Cultures were then fixed and stained by addition of 50 uL of a solution containing 8% formaldehyde and 4 uM DRAQ5 DNA dye (BioStatus, UK) per well. […] Five images were collected per well for reliable statistical analysis. Automated image analysis was performed with a script developed on Acapella High Content Imaging and Analysis Software (PerkinElmer). Output: percentage of infected cells per well as a second infection marker.; type: functional, organism-based, Rattus norvegicus; settings: H9c2, 4 h
[3] = test system: Trypanosoma cruzi; assay: GSK_TCAKS: pIC50 Trypanosoma cruzi Imaging: Amastigotes/Cell. […] Cells were then washed once with PBS before infection. T. cruzi trypomastigotes, collected at days 5 to 8 after infection from LLC-MK2 parasite infected cultures, were allowed to swim out for 4h at 37C from a centrifuged pellet (2,500 rpm/10 min/room temperature). Trypomastigotes were then collected and counted in a CASY Cell Counter. Trypomastigotes, in supplemented DMEM, were added to H9c2 cultures in a multiplicity of infection of 1 and incubated for 18 h. Cells were washed once with PBS before incubation of the infected H9c2 monolayer with trypsin (Life-Technologies) to detach cells from the flask. Cells were counted in a CASY Cell Counter using a 150 um capillary and their density set at 5 * 10^4 cells per mL in supplemented assay DMEM. Infected H9c2 were dispensed into 384-well poly-lysine coated assay plates at 50uL per well using a Multidrop Combi dispenser. After seeding them, the plates were incubated at 37C, 5% CO2 for 72h. Cultures were then fixed and stained by addition of 50 uL of a solution containing 8% formaldehyde and 4 uM DRAQ5 DNA dye (BioStatus, UK) per well. […] Five images were collected per well for reliable statistical analysis. Automated image analysis was performed with a script developed on Acapella High Content Imaging and Analysis Software (PerkinElmer). Output: number of amastigotes per cell as infection level measurement.; type: functional, organism-based, Rattus norvegicus; settings: H9c2, 4 h
[4] = test system: Trypanosoma cruzi; assay: as §1, with “H2C9” for “Trypanosoma cruzi”, “H9c2 Host Cardiomyocytes.” for “Infected Cells.”, “Number” for “percentage”, “H9c2 Host Cardiomyocytes nuclei to determine drug-related cytotoxicity.” for “infected cells per well as a second infection marker.”; type: functional, organism-based, Rattus norvegicus; settings: H9c2, 4 h
[5] = test system: Leishmania donovani; assay: GSK_TCAKS: pIC50 Leishmania donovani viability assay using fluorescence intensity. Assay plates (1536-well) were prepared by adding 30nL per well of compound. For single shot assay, the final compound concentration was 5uM. […] Briefly, eGFP LdBOB axenic amastigotes were harvested, fixed and counted in a CASY cell counter (Roche-Applied Science). A final concentration of 1.5 * 10^5 cells per well were prepared in amastigote media containing 500 U/mL penicillin/streptomycin (Invitrogen) and 6uL was dispensed to each experimental well using a Multidrop Combi dispenser (Thermo Scientific). 6uL of assay media was dispensed to control columns used as reference for 100% compound response. Following incubation for 72 h at 37C, 5% CO2, 2 uL of resazurin was added to each well at a final concentration of 0.5 mM in phosphate buffered saline (PBS) with IGEPAL (Sigma-Aldrich), 0.05% (v/v).; type: functional, organism-based
[6] = test system: Leishmania donovani; assay: GSK_TCAKS: pIC50 Leishmania donovani Imaging: Infected Macrophages. Assay plates (384-well) were prepared by adding 250nL of compound to each well. For single shot assay, the final compound concentration was 5 uM. […] Automated image analysis was performed with a script developed on Acapella High Content Imaging and Analysis Software (PerkinElmer). Output: Percent of infected macrophage cells were reported for each well.; type: functional, organism-based, Homo sapiens; settings: THP-1
[7] = test system: Leishmania donovani; assay: GSK_TCAKS: pIC50 Leishmania donovani Imaging: Amastigotes/Macrophages. Assay plates (384-well) were prepared by adding 250nL of compound to each well. For single shot assay, the final compound concentration was 5 uM. […] Automated image analysis was performed with a script developed on Acapella High Content Imaging and Analysis Software (PerkinElmer). Output: Average number of amastigotes per macrophage cell were reported for each well.; type: functional, organism-based, Homo sapiens; settings: THP-1
[8] = test system: Leishmania donovani; assay: GSK_TCAKS: pIC50 Leishmania donovani Imaging: THP-1 Host Macrophages. Assay plates (384-well) were prepared by adding 250nL of compound to each well. For single shot assay, the final compound concentration was 5 uM. […] Automated image analysis was performed with a script developed on Acapella High Content Imaging and Analysis Software (PerkinElmer). Output: THP-1 cell count were reported for each well.; type: functional, organism-based, Homo sapiens
[9] = test system: Trypanosoma brucei brucei; assay: GSK_TCAKS: pIC50 Trypanosoma brucei viability assay using fluorescence intensity. Assay plates (1536-well) were prepared by dispensing 25nL of compound solution per well using an Echo acoustic dispenser (Labcyte).; type: functional, organism-based; settings: Lister 427, 2 h
[10] = test system: Trypanosoma brucei brucei; assay: GSK_TCAKS: pIC50 Trypanosoma brucei viability assay using luminiscence. Assay plates (1536-well) were prepared. T. brucei cultures were harvested and counted in a CASY cell counter. A parasite suspension was prepared at a final concentration of 5 * 10^4 cells/mL in complete HMI9 medium and 6uL was dispensed to all wells containing compounds using a Multidrop Combi dispenser. 6uL of HMI9 media with 0.4% DMSO were dispensed to control columns. Plates were incubated for 24 h at 37C, 5% CO2 then tempered for 10 min at room temperature. ATP content was quantified by adding 4 uL of CellTiter-Glo Reagent (Promega) according to the manufacturer's instructions. Luminescence was measured using a ViewLux.; type: functional, organism-based; settings: Lister 427, CASY
[11] = GSK_TCAKS: pIC50 HepG2 human cell line viability assay using luminiscence. […] Seeding density was checked to ensure that new mono-layers were not more than 50% confluent at the time of harvesting. Cell suspension was added to 500 mL of the same medium at a final density of 1.2 * 10^5 cells/mL. This cell suspension was dispensed (25 uL, 3000 cells per well) into 384-well clear-bottom plates using a Multidrop Combi dispenser. Prior to addition of the cell suspension, the screening compounds (250 nL) were pre-dispensed into the plates with an Echo liquid handler. Plates were incubated for 48 h at 37C, 5% CO2. After incubation, plates equilibrated at room temperature for 30 min before proceeding to develop the luminescent signal. The signal developer, CellTiter-Glo Reagent, was allowed to equilibrate at room temperature for 30 min and added to the plates (25uL per well) using a Multidrop Combi dispenser. Plates were left for 10 min at room temperature for stabilization and then read using a ViewLux.; type: toxicity, cell-based
[12] = test system: NIH3T3; assay: GSK_TCAKS: pIC50 NIH 3T3 cell line viability assay using luminiscence. Tissue culture surface treated assay plates (1536-well) were used. […] The 100% cells survival control was determined exposing the host-cells to a 0.5% DMSO concentration, whereas the 100% toxicity control was achieved by seeding the cells in presence of Amphotericin B at 50uM. Plates were incubated for four days at 37C, 5% CO2. The assay readout was developed by addition of 5uL of CellTiter-Glo Reagent following the manufacturer's instructions. Luminiscence was measured using a ViewLux.; type: functional, cell-based; settings: Mus musculus, NIH3T3, 96 h
[13] = target: Sterol 14-alpha demethylase (Trypanosoma cruzi (strain CL Brener), UniProt Q7Z1V1); assay: GSK_TCAKS: pIC50 CYP51 from Trypanosoma cruzi.; type: functional
Sequence of Sterol 14-alpha demethylase (Q7Z1V1 whole entry): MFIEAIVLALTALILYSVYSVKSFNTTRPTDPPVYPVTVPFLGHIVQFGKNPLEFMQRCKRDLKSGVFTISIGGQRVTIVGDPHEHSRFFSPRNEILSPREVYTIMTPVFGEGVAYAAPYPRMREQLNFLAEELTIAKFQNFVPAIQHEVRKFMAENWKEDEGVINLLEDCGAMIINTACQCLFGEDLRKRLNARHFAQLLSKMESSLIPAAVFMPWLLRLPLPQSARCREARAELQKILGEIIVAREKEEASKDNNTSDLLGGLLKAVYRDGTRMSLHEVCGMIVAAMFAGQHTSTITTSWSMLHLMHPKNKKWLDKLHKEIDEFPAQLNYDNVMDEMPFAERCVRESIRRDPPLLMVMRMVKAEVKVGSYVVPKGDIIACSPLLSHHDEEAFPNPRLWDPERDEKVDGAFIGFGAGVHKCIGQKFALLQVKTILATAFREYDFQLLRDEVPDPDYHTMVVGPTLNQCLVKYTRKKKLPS

## CCN(CC)S(=O)(=O)c1ccc(C(=O)Nc2cc(C)nn2-c2nc(C)c(C)c(=O)[nH]2)cc1
[1]
  IC50: 0.631 µM
[2]
  IC50: 1.58 µM
[3]
  IC50: 0.316 µM
[4]
  IC50: > 50.1 µM
[5]
  IC50: 0.501 µM
[6]
  IC50: > 50.1 µM
[7]
  IC50: > 50.1 µM
[8]
  IC50: 3.16 µM
[9]
  IC50: 0.316 µM
[10]
  IC50: 0.316 µM
[11]
  IC50 at 48 h: > 100 µM
[12]
  IC50: > 50.1 µM
[13]
  IC50: > 100 µM

## COc1ccc(C(C)(C)C)cc1S(=O)(=O)n1ccnc1
[1]
  IC50: 0.141 µM
[2]
  IC50: 0.2 µM
[3]
  IC50: 0.2 µM
[4]
  IC50: > 50.1 µM
[5]
  IC50: 39.8 µM
[6]
  IC50: > 50.1 µM
[7]
  IC50: 25.1 µM
[8]
  IC50: > 50.1 µM
[9]
  IC50: 39.8 µM
[10]
  IC50: > 39.8 µM
[11]
  IC50 at 48 h: > 100 µM
[12]
  IC50: > 50.1 µM
[13]
  IC50: 0.00794 µM

## CCCn1c(NC(=O)Cc2ccc(Cl)cc2)nc2ccccc21
[1]
  IC50: 0.631 µM
[2]
  IC50: 2 µM
[3]
  IC50: 1.26 µM
[4]
  IC50: > 50.1 µM
[5]
  IC50: 39.8 µM
[6]
  IC50: 5.01 µM
[7]
  IC50: 3.16 µM
[8]
  IC50: > 50.1 µM
[9]
  IC50: 2 µM
[10]
  IC50: 3.16 µM
[11]
  IC50 at 48 h: > 100 µM
[12]
  IC50: > 50.1 µM
[13]
  IC50: > 100 µM

## O=C(Nc1nc(-c2ccc(S(=O)(=O)N3CCOCC3)cc2)cs1)c1ccc([N+](=O)[O-])cc1
[1]
  IC50: 1 µM
[2]
  IC50: 1.58 µM
[3]
  IC50: 0.501 µM
[4]
  IC50: > 50.1 µM
[5]
  IC50: > 50.1 µM
[6]
  IC50: > 50.1 µM
[7]
  IC50: 2.51 µM
[8]
  IC50: 3.98 µM
[9]
  IC50: 3.98 µM
[10]
  IC50: 10 µM
[11]
  IC50 at 48 h: > 100 µM
[12]
  IC50: 25.1 µM
[13]
  IC50: > 100 µM

## Cc1ccc2sc(NC(=O)Cn3cnc([N+](=O)[O-])n3)nc2c1
[1]
  IC50: 1.26 µM
[2]
  IC50: 3.98 µM
[3]
  IC50: 0.501 µM
[4]
  IC50: > 50.1 µM
[5]
  IC50: > 50.1 µM
[6]
  IC50: > 50.1 µM
[7]
  IC50: > 50.1 µM
[8]
  IC50: > 50.1 µM
[9]
  IC50: 25.1 µM
[10]
  IC50: > 39.8 µM
[11]
  IC50 at 48 h: > 100 µM
[12]
  IC50: 50.1 µM
[13]
  IC50: > 100 µM

## CCC(=O)Nc1ccc(C(=O)Nc2ccccc2-c2ccccc2)cc1
[1]
  IC50: 0.501 µM
[2]
  IC50: 0.501 µM
[3]
  IC50: 0.251 µM
[4]
  IC50: > 50.1 µM
[5]
  IC50: 10 µM
[6]
  IC50: 20 µM
[7]
  IC50: 25.1 µM
[8]
  IC50: 15.8 µM
[9]
  IC50: 20 µM
[10]
  IC50: 25.1 µM
[11]
  IC50 at 48 h: > 100 µM
[12]
  IC50: > 50.1 µM
[13]
  IC50: > 100 µM

## CCN(CC)S(=O)(=O)c1ccc(Cn2nc(C(=O)Nc3ccncn3)c3ccccc32)cc1
[1]
  IC50: 0.316 µM
[2]
  IC50: 0.398 µM
[3]
  IC50: 0.398 µM
[4]
  IC50: 25.1 µM
[5]
  IC50: > 50.1 µM
[6]
  IC50: > 50.1 µM
[7]
  IC50: > 50.1 µM
[8]
  IC50: > 50.1 µM
[9]
  IC50: 31.6 µM
[10]
  IC50: > 39.8 µM
[11]
  IC50 at 48 h: > 100 µM
[12]
  IC50: 39.8 µM
[13]
  IC50: 0.158 µM

Reference: ChEMBL document CHEMBL3430912, “GSK Tres Cantos Anti-Kinetoplastid Screening (TCAKS) Data”
